Where a SMILES comes first, the peptide text is derived from it. [ ]: non-standard residue; d: D form. pY = N[C@@H](Cc1ccc(OP(=O)(O)O)cc1)C(=O)O
Legend:
[1] = molecular target: T1, E3 ubiquitin-protein ligase CBL-B (Homo sapiens, UniProt Q13191); experiment: Binding affinity to recombinant His-tagged Cbl-b (unknown origin) (39 to 368 residues) expressed in Escherichia coli BL21 (DE3) using FITC-DGpYPEPA-NH2 as substrate incubated for 30 mins by fluorescence polarization assay
[2] = molecular target: T1, E3 ubiquitin-protein ligase CBL-B; experiment: Binding affinity to recombinant His-tagged Cbl-b (unknown origin) (39 to 368 residues) expressed in Escherichia coli BL21 (DE3) assessed as dissociation constant by bio-layer interferometry assay

T1 sequence (Q13191 whole entry, the tested form may be a part): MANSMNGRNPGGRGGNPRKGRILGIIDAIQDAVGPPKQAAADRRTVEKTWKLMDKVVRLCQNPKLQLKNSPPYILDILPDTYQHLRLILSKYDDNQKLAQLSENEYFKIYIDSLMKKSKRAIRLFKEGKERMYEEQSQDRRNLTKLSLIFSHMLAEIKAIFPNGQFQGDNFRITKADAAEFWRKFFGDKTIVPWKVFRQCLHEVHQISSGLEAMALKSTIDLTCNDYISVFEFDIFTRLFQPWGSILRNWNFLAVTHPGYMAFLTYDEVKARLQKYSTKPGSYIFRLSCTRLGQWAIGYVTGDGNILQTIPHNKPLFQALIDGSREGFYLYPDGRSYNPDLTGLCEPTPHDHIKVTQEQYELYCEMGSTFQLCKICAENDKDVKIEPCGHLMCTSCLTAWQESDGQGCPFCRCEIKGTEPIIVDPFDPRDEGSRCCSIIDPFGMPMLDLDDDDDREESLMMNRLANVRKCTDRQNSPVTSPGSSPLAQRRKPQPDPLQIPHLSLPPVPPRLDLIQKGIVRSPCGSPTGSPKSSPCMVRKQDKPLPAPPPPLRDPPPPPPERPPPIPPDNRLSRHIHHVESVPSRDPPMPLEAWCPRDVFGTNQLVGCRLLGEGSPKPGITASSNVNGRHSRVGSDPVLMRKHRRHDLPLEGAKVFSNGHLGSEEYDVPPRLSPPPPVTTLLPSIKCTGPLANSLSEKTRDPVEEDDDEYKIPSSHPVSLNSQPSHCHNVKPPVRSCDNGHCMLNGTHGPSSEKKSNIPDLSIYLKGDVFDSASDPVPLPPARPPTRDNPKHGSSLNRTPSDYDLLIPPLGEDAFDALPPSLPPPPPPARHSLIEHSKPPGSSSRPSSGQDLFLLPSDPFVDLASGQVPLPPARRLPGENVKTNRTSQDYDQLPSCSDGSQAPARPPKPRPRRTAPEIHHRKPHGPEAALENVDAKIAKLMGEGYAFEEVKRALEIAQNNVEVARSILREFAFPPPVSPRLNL

| Compound | IC50 [1] [µM] | Kd [2] [µM] |
| --- | --- | --- |
| CC(=O)N[C@@H](Cc1ccc(OP(=O)(O)O)cc1)C(=O)N[C@H](C(=O)N1CCC[C@H]1C(=O)N[C@@H](CCC(=O)O)C(=O)N1CCC[C@H]1C(N)=O)[C@@H](C)O | 7.84 | 5.55 |
| CC(=O)NCC(=O)N[C@@H](Cc1ccc(OP(=O)(O)O)cc1)C(=O)N[C@H](C(=O)N1CCC[C@H]1C(=O)N[C@@H](CCC(=O)O)C(=O)N1CCC[C@H]1C(N)=O)[C@@H](C)O (Ac-G[pY]TPEP-NH2) | 11.3 | 22.4 |
| CC(=O)N[C@@H](Cc1ccc(OP(=O)(O)O)cc1)C(=O)N[C@H](C(=O)N[C@@H](C)C(=O)N[C@@H](CCC(=O)O)C(=O)N1CCC[C@H]1C(N)=O)[C@@H](C)O (Ac-[pY]TAEP-NH2) | 27.3 | 24.4 |
| CC[C@H](C)[C@H](NC(=O)[C@@H](NC(=O)[C@H](Cc1ccc(OP(=O)(O)O)cc1)NC(C)=O)[C@@H](C)O)C(=O)N[C@@H](CCC(=O)O)C(=O)N1CCC[C@H]1C(N)=O (Ac-[pY]TIEP-NH2) | – | 35.5 |
| CC(=O)N[C@@H](Cc1ccc(OP(=O)(O)O)cc1)C(=O)N[C@H](C(=O)N1CCC[C@H]1C(=O)N[C@@H](C)C(=O)N1CCC[C@H]1C(N)=O)[C@@H](C)O (Ac-[pY]TPAP-NH2) | 46.3 | 18.5 |
| CC(=O)N[C@@H](Cc1ccc(OP(=O)(O)O)cc1)C(=O)N[C@H](C(=O)N1CCC[C@H]1C(=O)N[C@@H](CC(=O)O)C(=O)N1CCC[C@H]1C(N)=O)[C@@H](C)O (Ac-[pY]TPDP-NH2) | – | 22.9 |
| CC(=O)N[C@@H](Cc1ccc(OP(=O)(O)O)cc1)C(=O)N[C@H](C(=O)N1CCC[C@H]1C(=O)N[C@@H](CCC(=O)O)C(N)=O)[C@@H](C)O (Ac-[pY]TPE-NH2) | 398 | 98.3 |
| CC(=O)N[C@@H](Cc1ccc(OP(=O)(O)O)cc1)C(=O)N[C@H](C(=O)N1CCC[C@H]1C(=O)N[C@@H](CCC(=O)O)C(=O)N[C@@H](Cc1ccccc1)C(N)=O)[C@@H](C)O (Ac-[pY]TPEF-NH2) | – | 33.5 |
| CC(=O)N[C@@H](Cc1ccc(OP(=O)(O)O)cc1)C(=O)N[C@H](C(=O)N1CCC[C@H]1C(=O)N[C@@H](CCC(N)=O)C(=O)N1CCC[C@H]1C(N)=O)[C@@H](C)O (Ac-[pY]TPQP-NH2) | – | 43.4 |
| Ac-ETPEP-NH2 | > 1000 | – |

The remaining lines, values ahead:

| IC50 [1] [µM] | Kd [2] [µM] | Compound |
| --- | --- | --- |
| 10.6 | 24.4 | CC(=O)N[C@@H](CC(=O)O)C(=O)NCC(=O)N[C@@H](Cc1ccc(OP(=O)(O)O)cc1)C(=O)N[C@H](C(=O)N1CCC[C@H]1C(=O)N[C@@H](CCC(=O)O)C(=O)N1CCC[C@H]1C(=O)N[C@@H](C)C(N)=O)[C@@H](C)O (Ac-DG[pY]TPEPA-NH2) |
| – | 8.28 | CC(=O)N[C@@H](CC(C)C)C(=O)N[C@@H](CCC(N)=O)C(=O)N[C@@H](CCCNC(=N)N)C(=O)N[C@@H](Cc1ccc(OP(=O)(O)O)cc1)C(=O)N[C@@H](CO)C(=O)N[C@@H](CO)C(=O)N[C@@H](CC(=O)O)C(=O)N1CCC[C@H]1C(=O)N[C@H](C(=O)NCC(N)=O)[C@@H](C)O (Ac-LQR[pY]SSDPTG-NH2) |
| – | 0.763 | CC(=O)N[C@@H](CCCNC(=N)N)C(=O)N[C@@H](Cc1ccc(OP(=O)(O)O)cc1)C(=O)N[C@H](C(=O)N1CCC[C@H]1C(=O)N[C@@H](CCC(=O)O)C(=O)N1CCC[C@H]1C(N)=O)[C@@H](C)O (Ac-R[pY]TPEP-NH2) |
| 104 | 57.1 | CC(=O)N[C@@H](Cc1ccc(OP(=O)(O)O)cc1)C(=O)N[C@@H](C)C(=O)N1CCC[C@H]1C(=O)N[C@@H](CCC(=O)O)C(=O)N1CCC[C@H]1C(N)=O (Ac-[pY]APEP-NH2) |
| – | 29.8 | CC(=O)N[C@@H](Cc1ccc(OP(=O)(O)O)cc1)C(=O)N[C@H](C(=O)N[C@@H](CC(C)C)C(=O)N[C@@H](CCC(=O)O)C(=O)N1CCC[C@H]1C(N)=O)[C@@H](C)O (Ac-[pY]TLEP-NH2) |
| > 1000 | – | C[C@@H](O)[C@H](NC(=O)[C@H](Cc1ccc(OP(=O)(O)O)cc1)NC(=O)CN)C(=O)N1CCC[C@H]1C(=O)N[C@@H](CCC(=O)O)C(=O)O (H-G[pY]TPE-OH) |

From ChEMBL document CHEMBL4819076, “An affinity prediction approach for the ligand of E3 ligase Cbl-b and an insight into substrate binding pattern” (Bioorg Med Chem, 2021)
